In article PMC11952846, “The sterol-regulating human ARV1 binds cholesterol and phospholipids through its conserved ARV1 homology domain” (The Journal of Biological Chemistry, 2025):
Where a chain is given by its changes, count along the chain named.

How the values were obtained:
6XHIS-ARV1-N98 D72A = biological target: T1, 6XHIS-ARV1-N98 D72A (Homo sapiens, UniProt Q9H2C2, D72A); assay: Lipid overlay far western, site-directed mutant; type: binding; conditions: compared to the ARV1-N98 protein
T1 construct: Expressing amino-terminal 98 amino acids of ARV1; made in house; host or cells: E. coli BL21 (pET-28a(+))
How it was run: (§1)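 Steps: block overlays 1 h in Tris pH 7.5 saline with 0.5% Tween 20 and 3% BSA; wash; add 0.5 μg/ml protein with 0.1% Triton X-100 for 1 h at RT; wash; anti-tag antibody 1 h; HRP substrate imaging.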

6XHIS-ARV1-N98 E70A = biological target: T2, 6XHIS-ARV1-N98 E70A (Homo sapiens, UniProt Q9H2C2, E70A); assay: Lipid overlay far western, site-directed mutant; type: binding; conditions: compared to the ARV1-N98 protein
T2 construct: Expressing amino-terminal 98 amino acids of ARV1; made in house; host or cells: E. coli BL21 (pET-28a(+))
How it was run: as §1

6XHIS-ARV1-N98 N94Q = biological target: T3, 6XHIS-ARV1-N98 N94Q (Homo sapiens, UniProt Q9H2C2, N94Q); assay: Lipid overlay far western, site-directed mutant; type: binding; conditions: compared to the ARV1-N98 protein
T3 construct: Expressing amino-terminal 98 amino acids of ARV1; made in house; host or cells: E. coli BL21 (pET-28a(+))
T3 sequence (Q9H2C2 1-98 N94Q): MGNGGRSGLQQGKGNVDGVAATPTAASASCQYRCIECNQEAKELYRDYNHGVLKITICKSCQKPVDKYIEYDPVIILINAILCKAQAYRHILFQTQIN
How it was run: as §1

GST-Annexin A2 = GST-Annexin A2 (Homo sapiens, UniProt P07355); assay: Lipid overlay far western (positive control protein); type: binding
Description: Lipid overlays were blocked in TBST-BSA (100 mM Tris–HCl buffer, pH 7.5, 150 mM NaCl, 0.5% Tween 20, 3% bovine serum albumin) for 1 h and subsequently washed eight separate times with TBST for 2 min each. Overlays were incubated with 0.5 μg/ml GST-tagged or 6XHIS-tagged proteins in 3% TBST-BSA buffer containing 0.1% Triton X-100, for 1 h at room temperature and washed as above. Overlays were incubated with either anti-GST or anti-6XHIS monoclonal antibodies at a 1:1000 dilution in TBST-BSA for 1 h at room temperature followed by eight washes in TBST. Overlays were visualized using Immobilon Western Chemiluminescent horseradish peroxidase substrate and protein–lipid interaction was detected using a GE ImageQuant LAS 3000 imager.

GST-ARV1-N98 C58/C61A = biological target: T4, GST-ARV1-N98 C58/C61A (Homo sapiens, UniProt Q9H2C2, C58A/C61A); assay: Liposome binding assay, site-directed mutant; conditions: PC:PL, sulfatide or PI(4)P liposomes
T4 construct: Expresses amino-terminal 98 amino acids of ARV1; made in house; host or cells: E. coli BL21 (pGEX-4T1)
T4 sequence (Q9H2C2 1-98 C58A/C61A): T3 sequence (Q9H2C2 1-98 N94Q) with C58A, C61A, Q94N
Description: (§2) Lyophilized lipids were reconstituted in chloroform at 10 mg/ml and stored in glass tubes with Teflon tops at −20 °C until use. One milliliter of 10 mg/ml stock was dried under a stream of nitrogen in a glass tube until a lipid cake/film was formed. The lipid cake was then rehydrated in BLT rehydration buffer (5 mM Tris/HCl, pH 7.4, containing 150 mM NaCl) to a concentration of 1 mg/ml. Lipid suspensions were subjected to three freeze/thaw cycles using a dry ice ethanol/[…] water bath to encapsulate the buffer and improve liposome formation. The suspension and lipid extruder were equilibrated to temperature for 10 min and liposomes were extruded using […] polycarbonate membranes (Avestin). Liposomes were made by mixing stock lipid PL (1 mg/ml) with PC (10 mg/ml).
(§3) Sulfatide liposomes were generated as previously described ([94]). All lipids were resuspended in organic solvents as per manufacturer’s instructions. Liposomes were prepared with mixing PC:PE:cholesterol:sulfatides (1:1:1:4) and subsequently dried down by lyophilization to obtain lipid films. Lipids were hydrated in 20 mM Tris–HCL, pH 6.8, containing 100 mM NaCl at a concentration of 1 mg/ml.
(§4) PI(4)P liposomes were generated as described by Knodler et al. ([95]), with some modifications. Briefly, liposomes were generated at a lipid concentration of 10 mg/ml. Liposomes contained PC (60%), PI (30%), PE (8%), and PI(4)P (2%). Lipid solution was dried down and resuspended in liposome buffer (20 mM Hepes–HCL, pH 7.4, containing 1 mM EDTA and 50 mM potassium acetate). Liposomes were formed by sonication on ice.
(§5) Liposomes were serial diluted in floatation buffer (100 mM NaCl, 2 mM EDTA, pH 5.5) to a final concentration of 0.1 mg/ml. Nine hundred microliters of liposome solution was placed in clear ultracentrifuge tubes and mixed with 100 μl of 0.01 μg/ml of protein. The liposome/protein solution was incubated at room temperature for 1 h with occasional shaking. An initial 100 μl of liposome/protein solution (liposomes) was removed and the remaining 900 μl was centrifuged at 50,000g for 20 min at 4 °C. The pellet was resuspended in 800 μl of fresh floatation buffer, centrifuged as above, and 800 μl of supernatant was removed (wash 1). This was repeated a second time and again 800 μl of supernatant was removed (wash 2). The final pellet was resuspended in 100 μl of floatation buffer plus SDS treatment buffer (pellet). Thirty microliters of each fraction was run on a 15% SDS-PAGE gel and probed with an anti-GST monoclonal antibody at a 1:1500 dilution.

6XHIS-ARV1-N98 K54/K59A = biological target: T5, 6XHIS-ARV1-N98 K54/K59A (Homo sapiens, UniProt Q9H2C2, K54A/K59A); assay: Lipid overlay far western, site-directed mutant; type: binding; conditions: compared to the ARV1-N98 protein
T5 construct: Expressing amino-terminal 98 amino acids of ARV1; made in house; host or cells: E. coli BL21 (pET-28a(+))
T5 sequence (Q9H2C2 1-98 K54A/K59A): T3 sequence (Q9H2C2 1-98 N94Q) with K54A, K59A, Q94N
How it was run: as §1

6XHIS-ARV1-N98 C58/C61A = biological target: T6, 6XHIS-ARV1-N98 C58/C61A (Homo sapiens, UniProt Q9H2C2, C58A/C61A); assay: Lipid overlay far western, site-directed mutant; type: binding; conditions: compared to the ARV1-N98 protein
T6 construct: Expressing amino-terminal 98 amino acids of ARV1; made in house; host or cells: E. coli BL21 (pET-28a(+))
T6 sequence (Q9H2C2 1-98 C58A/C61A): T3 sequence (Q9H2C2 1-98 N94Q) with C58A, C61A, Q94N
How it was run: as §1

GST-ARV1-N98 N94A = biological target: T7, GST-ARV1-N98 N94A (Homo sapiens, UniProt Q9H2C2, N94A); assay: Liposome binding assay, site-directed mutant; conditions: PC:PL, sulfatide or PI(4)P liposomes
T7 construct: Expresses amino-terminal 98 amino acids of ARV1; made in house; host or cells: E. coli BL21 (pGEX-4T1)
T7 sequence (Q9H2C2 1-98 N94A): T3 sequence (Q9H2C2 1-98 N94Q) with Q94A
Description: as §2, §3, §4, §5

GST-ARV1-N98 K67A = biological target: T8, GST-ARV1-N98 K67A (Homo sapiens, UniProt Q9H2C2, K67A); assay: Liposome binding assay, site-directed mutant; conditions: PC:PL, sulfatide liposomes
T8 construct: Expresses amino-terminal 98 amino acids of ARV1; made in house; host or cells: E. coli BL21 (pGEX-4T1)
T8 sequence (Q9H2C2 1-98 K67A): T3 sequence (Q9H2C2 1-98 N94Q) with K67A, Q94N
Description: as §2, §3, §4, §5

GST-ARV1-N70 = biological target: T9, GST-ARV1-N70 (Homo sapiens, UniProt Q9H2C2); assay: Lipid overlay far western, truncation; type: binding; conditions: compared to ARV1-N98
T9 construct: Expresses amino-terminal 70 amino acids of ARV1; made in house; host or cells: E. coli BL21 (pGEX-4T1)
T9 sequence (Q9H2C2 1-70): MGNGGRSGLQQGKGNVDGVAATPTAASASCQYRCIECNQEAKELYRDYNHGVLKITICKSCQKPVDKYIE
How it was run: as §1

[1] = lipid-embedded membrane strips, incl. sphingolipid strip

Sequence of GST-Annexin A2 (P07355 whole entry): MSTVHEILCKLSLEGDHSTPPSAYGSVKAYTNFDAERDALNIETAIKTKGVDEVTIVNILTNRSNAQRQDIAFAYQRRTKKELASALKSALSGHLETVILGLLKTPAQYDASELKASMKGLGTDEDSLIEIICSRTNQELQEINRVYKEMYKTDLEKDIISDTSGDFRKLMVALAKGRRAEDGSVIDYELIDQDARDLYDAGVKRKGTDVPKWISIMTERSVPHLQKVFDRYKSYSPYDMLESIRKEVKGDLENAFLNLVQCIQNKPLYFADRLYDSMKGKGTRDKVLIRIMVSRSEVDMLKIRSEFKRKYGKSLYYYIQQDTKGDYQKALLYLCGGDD
T2 sequence (Q9H2C2 1-98 E70A): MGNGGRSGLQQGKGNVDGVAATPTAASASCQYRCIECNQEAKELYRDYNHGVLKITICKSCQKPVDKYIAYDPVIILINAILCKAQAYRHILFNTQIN
T1 sequence (Q9H2C2 1-98 D72A): as the sequence (Q9H2C2 1-98 E70A) above, with A70E, D72A counted along it

Row | Compound | change of lipid-protein interaction (6XHIS-ARV1-N98 D72A) | change of lipid-protein interaction (6XHIS-ARV1-N98 E70A) | change of lipid-protein interaction (6XHIS-ARV1-N98 N94Q) | lipid-protein interaction (GST-Annexin A2; [1]) | liposome binding (GST-ARV1-N98 C58/C61A) | change of lipid-protein interaction (6XHIS-ARV1-N98 K54/K59A) | change of lipid-protein interaction (6XHIS-ARV1-N98 C58/C61A) | liposome binding (GST-ARV1-N98 N94A) | liposome binding (GST-ARV1-N98 K67A) | change of lipid-protein interaction (GST-ARV1-N70) | also measured
1 | CCCCC/C=C\C/C=C\CCCCCCCC(=O)OC[C@H](COP(=O)(O)OCC(O)COP(=O)(O)OC[C@@H](COC(=O)CCCCCCC/C=C\C/C=C\CCCCC)OC(=O)CCCCCCC/C=C\C/C=C\CCCCC)OC(=O)CCCCCCC/C=C\C/C=C\CCCCC (some centres unmarked) [CL, cardiolipin] | weakened | weakened | more strongly | interacted | – | – | – | – | – | – | –
2 | CCCCCCCCCCCCCCCC(=O)OC[C@H](COP(=O)(O)O)OC(=O)CCCCCCCCCCCCCCC [PA, phosphatidic acid] | – | – | – | weakly | did not bind | – | – | – | – | – | –
3 | CCCCCCCC/C=C\CCCCCCCC(=O)OC[C@H](COP(=O)(O)OCC(O)CO)OC(=O)CCCCCCC/C=C\CCCCCCCC (some centres unmarked) [PG, phosphatidylglycerol] | weakened | weakened | more strongly | – | – | abolished | weakened or eliminated | very weak | unable to bind | – | –
4 | CCCCCCCCCCCCCCCCCC(=O)OC[C@H](COP(=O)(O)OC[C@H](N)C(=O)O)OC(=O)CCCCCCCCCCCCCCCCC [PS, phosphatidylserine] | – | – | – | interacted | – | – | enhanced | – | – | reduced interactions | –
5 | CCCCCC(=O)O[C@H](COC(=O)CCCCCNC(=O)CCCC[C@@H]1SC[C@@H]2NC(=O)N[C@@H]21)COP(=O)(O)O[C@H]1[C@H](O)[C@@H](O)[C@H](OP(=O)(O)O)[C@@H](O)[C@H]1O [reference compound] | – | – | – | interacted | did not bind | increasing the interaction | – | lost the ability to bind | – | enhanced | lipid-protein interaction (GST-Annexin A2; PIP lipid membrane strip, 100pmol-1.56pmol per spot): strongest interactions
6 | phosphatidylethanolamine [PE] | – | – | – | – | – | – | – | – | showed binding | – | –
